Measured values reported in patent publication US11938120B1 (priority 2023, dated 2024).
≈ marks a conversion by molar mass, not a printed value.

Key:
[1] = system: Mycobacterium tuberculosis H37Rv (ATCC 25177); assay: Anti-tubercular activity, colorimetric Resazurin Microplate Assay (REMA), susceptible strain; format: cell-based; details: 192 h, Middlebrook 7H9 broth, 37° C., 8 days of incubation then resazurin overnight, read-out: MIC (μg/mL) Susceptible (H37Rv)

SMILES | melting point | MIC [1]
CCOC(=O)c1cc(C(=O)c2ccc(C)cc2)n2c1ccc1cc(C)ccc12 | 155 to 156 °C | –
CCOC(=O)c1cc(C(=O)c2ccc(F)cc2)n2c1ccc1cc(C)ccc12 | 163 to 164 °C | –
CCOC(=O)c1cc(C(=O)c2ccccc2[N+](=O)[O-])n2c1ccc1cc(C)ccc12 [Compound 4d, Ethyl 7-methyl-1-(2-nitrobenzoyl)pyrrolo[1,2-a]quinoline-3-carboxylate] | 174 to 175 °C | 8 µg/mL (≈ 19.9 µM)
CCOC(=O)c1cc(C(=O)c2cc(C(F)(F)F)cc(C(F)(F)F)c2)n2c1ccc1cc(C)ccc12 [Compound 4f, Ethyl 1-(3,5-bis(trifluoromethyl)benzoyl)-7-methylpyrrolo[1,2-a]quinoline-3-carboxylate] | 223 to 224 °C | 16 µg/mL (≈ 32.4 µM)
CCOC(=O)c1cc(C(=O)c2ccccc2)n2c1ccc1cc(C)ccc12 | 139 to 140 °C | –
CCOC(=O)c1cc(C(=O)c2ccc(Br)cc2)n2c1ccc1cc(C)ccc12 [Compound 4e, Ethyl 1-(4-bromobenzoyl)-7-methylpyrrolo[1,2-a]quinoline-3-carboxylate] | 180 to 181 °C | 32 µg/mL (≈ 73.3 µM)
